From PubChem BioAssay AID1996
≈ marks a conversion by molar mass, not a printed value.

Conditions: buffer; pH 7.4; 200.0 µM

Structure (SMILES)	solubility kinetic
Cc1ccc(N2C(=O)C3CCCN3C2=S)cc1 (centres undefined)	34.2 µg/mL (≈ 139 µM)
CCCCC(=O)Nc1ccc(NC(=O)c2ccco2)cn1	36.9 µg/mL (≈ 128 µM)
CCOC(=O)N1CCc2[nH]c3ccc(C)cc3c2C1	15.9 µg/mL (≈ 61.6 µM)
Cc1ccc(NC(=O)C(=O)Nc2ccc(C)cn2)nc1	1.8 µg/mL (≈ 6.66 µM)
CCOc1ccc(NC(=O)Nc2ccccc2SC)cc1	1.4 µg/mL (≈ 4.63 µM)
O=S(=O)(c1ccc(Cl)cc1)N1CCC(n2cccc2)CC1	0.6 µg/mL (≈ 1.85 µM)
O=C(COC(=O)c1ccccc1Cl)Nc1ccc2[nH]c(=O)[nH]c2c1	23.3 µg/mL (≈ 67.4 µM)
O=S(=O)(/N=C(/Nc1nccs1)c1ccc(F)cc1)c1ccccc1	5 µg/mL (≈ 13.8 µM)
Cc1cc(C)n(/C(=C\N(C)C)C(=O)c2cccc([N+](=O)[O-])c2)n1	> 47.2 µg/mL
O=C(NCCCn1ccnc1)c1ccc(-c2cccc(C(F)(F)F)c2)o1	> 54.5 µg/mL
COc1ccc(NC(=O)Cn2cnc3ccccc3c2=O)cc1OC	12.6 µg/mL (≈ 37.1 µM)
O=C(NCc1cccnc1)c1ccccc1NS(=O)(=O)c1ccc(Br)cc1	> 66.9 µg/mL
O=C(O)C1CN(C(=O)c2ccccc2)c2cc(Cl)ccc2O1 (centres undefined)	> 47.7 µg/mL
CC(NC(=O)COC(=O)C1CC2CCCC(C1)C2=O)c1ccccc1 (centres undefined)	> 51.5 µg/mL
CC1CCCCN1C(=O)c1cc2ccccc2cc1O (centres undefined)	> 40.4 µg/mL
C(=C\c1ccc2ccccc2n1)/c1ccccc1	0.5 µg/mL (≈ 2.16 µM)
COc1ccc(C(=O)CCC(=O)Nc2ccc(Cl)cc2)cc1	< 0.7 µg/mL
Cc1cc(NC(=O)CSc2ncnc3sccc23)no1	19.3 µg/mL (≈ 63 µM)
Cc1nc2ccccc2cc1C(=O)NCc1ccc(F)cc1	20.6 µg/mL (≈ 70 µM)
CCOc1ccc(S(=O)(=O)NCc2cccnc2)cc1C(C)C	> 50.2 µg/mL

Structure (SMILES)	solubility kinetic
CC1CCCC(NC(=O)CSc2nncs2)C1C (centres undefined)	> 42.8 µg/mL
Cc1[nH]c(=O)[nH]c(=O)c1N1CCOCC1	> 31.7 µg/mL
Cc1cccc(NC(=O)N2CCC(NC(=O)C3CCCCC3)CC2)c1	1.6 µg/mL (≈ 4.66 µM)
Cc1ccc(CCC(=O)Nc2ccc(Br)cc2)o1	4.2 µg/mL (≈ 13.6 µM)
CC(=O)Nc1c(C)nn(-c2ccc([N+](=O)[O-])cc2)c1C	> 41.1 µg/mL
O=C(Nc1ccc2ccccc2n1)C1CCCCC1	26.6 µg/mL (≈ 105 µM)
O=C(NCCCN1CCOCC1)c1ccc(Cl)cc1[N+](=O)[O-]	49.1 µg/mL (≈ 150 µM)
Cc1cc(C(C)(C)C)cc(C)c1COC(=O)CN1C(=O)NC2(CCCC2)C1=O	13.3 µg/mL (≈ 34.4 µM)
COCCC(=O)Nc1ccc2c(c1)CN(C(=O)CSC)CC2	> 48.4 µg/mL
Cc1cc(C)nc(NC(=O)Nc2ccc(F)cc2F)n1	10.2 µg/mL (≈ 36.7 µM)
CCOc1ccccc1NC(=O)/C(C#N)=C/c1cccnc1	18.8 µg/mL (≈ 64.1 µM)
O=C(O)CCC(=O)N1CCN(c2ncccc2C(F)(F)F)CC1	44.5 µg/mL (≈ 134 µM)
Cn1cnc(S(=O)(=O)Nc2cc(-c3ccc(Cl)cc3)nn2C)c1	> 52.8 µg/mL
CC(=O)Nc1ccc(S(=O)(=O)N[C@@H](C)C(=O)OCC(=O)c2ccc(C)cc2)cc1	37.7 µg/mL (≈ 90.1 µM)
O=C1NC(=O)C(Cc2c[nH]c3ccccc23)N1 (centres undefined)	> 34.4 µg/mL
O=C(/C=C/c1cccs1)N1CCN(c2ccc(F)cc2)CC1	3.1 µg/mL (≈ 9.8 µM)
COc1cc2[nH]c(C(=O)NCCc3ccccc3)cc2c(OC)c1OC	20.3 µg/mL (≈ 57.3 µM)
O=C(CCNC(=O)c1ccco1)Nc1ccc(F)c(Cl)c1	17.1 µg/mL (≈ 55 µM)
Cc1ccnc(NC(=O)c2ccc(Cl)cc2Cl)n1	31.7 µg/mL (≈ 112 µM)
Cc1nc(CNS(=O)(=O)c2cc([N+](=O)[O-])ccc2C)cs1	10.3 µg/mL (≈ 31.5 µM)

Structure (SMILES)	solubility kinetic
CC(=O)OC1CC(c2cc(C(C)(C)C)c(O)c(C(C)(C)C)c2)=NO1 (centres undefined)	7.7 µg/mL (≈ 23.1 µM)
Cc1ccc(C)c(S(=O)(=O)NCCN2CCOCC2)c1.Cl	> 50.2 µg/mL
COCCCNC(=O)c1ccc(C2SCC(=O)N2Cc2ccco2)cc1 (centres undefined)	52.1 µg/mL (≈ 139 µM)
CCNC(=O)NC(=O)CSc1ccc(S(=O)(=O)N2CCOCC2)cn1	56.2 µg/mL (≈ 145 µM)
CC1CC(C)CN(C(=O)COC(=O)CN2C(=O)c3ccccc3C2=O)C1 (centres undefined)	> 53.8 µg/mL
C[C@H](NC(=O)c1ccccc1)C(=O)OCC(=O)Nc1sccc1C(N)=O	> 56.3 µg/mL
O=C(NCc1ccc(F)cc1)c1cc2ccccc2o1	34.9 µg/mL (≈ 130 µM)
COc1ccc(S(=O)(=O)N2CCc3ccccc32)cc1C(=O)NCCc1ccc(S(N)(=O)=O)cc1	3.7 µg/mL (≈ 7.18 µM)
O=C(Nc1ccccc1N1CCOCC1)c1ccc2ccccc2c1	0.8 µg/mL (≈ 2.41 µM)
Cc1ccc(S(=O)(=O)/N=C(/Nc2cccc(O)c2)c2ccccc2)cc1	> 55 µg/mL
Cc1ccc(OCC(=O)N2CCC(C)CC2)c([N+](=O)[O-])n1	43 µg/mL (≈ 147 µM)
Cc1nccc(-c2cccc(NC(=O)Nc3ccc(Cl)cc3)c2)n1	0.6 µg/mL (≈ 1.77 µM)
COc1ccc(CNC(=S)NC2CCCCC2)cc1	38.4 µg/mL (≈ 138 µM)
Cn1c(O)c(/C=N/N2CCOCC2)c(=O)n(-c2ccccc2)c1=S	> 52 µg/mL
CCCc1ncc(C(O)c2ccccc2OC)n1C (centres undefined)	> 39.1 µg/mL
O=[N+]([O-])c1ccc2nonc2c1Nc1ccccc1	0.7 µg/mL (≈ 2.73 µM)
CCCCCC1CC(CC(=O)NC(=S)Nc2ccccc2Cl)C(=O)O1 (centres undefined)	1.4 µg/mL (≈ 3.66 µM)
O=C(NCc1cccc(C(F)(F)F)c1)N1CCN(C(=O)c2ccccc2)CC1	> 58.7 µg/mL
Cc1ccc(C(=O)CN2C(=O)NC3(CCCCC3C)C2=O)s1 (centres undefined)	33.2 µg/mL (≈ 104 µM)
